The results in this text go back to patent US20230263822A1, “MODULATION OF FACTOR 11 EXPRESSION” (Ionis Pharmaceuticals, Inc., priority 2008, published 2023).

Strand notation (5' to 3'): a small letter for the sugar, then the base; units joined by * are phosphorothioate-linked, units joined directly phosphodiester-linked; [ ] holds rarer units or linkages, { } end groups; capitals alone tell only the bases. e = 2'-O-(2-methoxyethyl) (MOE); [5mC] = 5-methylcytosine; d = 2'-deoxy (DNA)

What is called % inhibition is the relative decrease from the control value, in per cent. A high value points to strong suppression.

The subject of this series is human Factor 11 mRNA. The series can be described thus: Antisense inhibition of human Factor 11 in HepG2 cells, lipofectin, 75 nM (Example 1). It is filed as cell-based. As to conditions: 75 nM antisense oligonucleotide, ~24 h, relative to untreated control cells, gapmers targeted to SEQ ID NO: 1. The method, then: Antisense oligonucleotides targeted to a Factor 11 nucleic acid were tested for their effects on Factor 11 mRNA in vitro. Cultured HepG2 cells at a density of 10,000 cells per well were transfected using lipofectin reagent with 75 nM antisense oligonucleotide. After a treatment period of approximately 24 hours, RNA was isolated from the cells and Factor 11 mRNA levels were measured by quantitative real time PCR. Factor 11 mRNA levels were adjusted according to total RNA content, as measured by RIBOGREEN. Results are presented as percent inhibition of Factor 11, relative to untreated control cells.
The chimeric antisense oligonucleotides in Tables 1 and 2 were designed as 5-10-5 MOE gapmers. The gapmers are 20 nucleotides in length, wherein the central gap segment is comprised of 10 2′-deoxynucleotides and is flanked on both sides (in the 5′ and 3′ directions) by wings comprising 5 nucleotides each. Each nucleotide in the 5′ wing segment and each nucleotide in the 3′ wing segment has a 2′-MOE modification. The internucleoside linkages throughout each gapmer are phosphorothioate (P=S) linkages. All cytidine residues throughout each gapmer are 5-methylcytidines. “Target start site” indicates the 5′-most nucleotide to which the gapmer is targeted. “Target stop site” indicates the 3′-most nucleotide to which the gapmer is targeted. Each gapmer listed in Table 1 is targeted to SEQ TD NO: 1 (GENBANK Accession No. NM_000128.3) and each gapmer listed in Table 2 is targeted to SEQ TD NO: 2 (GENBANK Accession No. NT_022792.17, truncated from 19598000 to 19624000).

As to “412244 (antisense eG*eA*eA*eG*eG*d[5mC]*dA*dG*dG*d[5mC]*dA*dT*dA*dT*dG*eG*eG*eT*e[5mC]*eG) [compound 412244]”, the “% inhibition” value turned out to be 53%.
The figure for “412245 (antisense eG*eT*e[5mC]*eA*e[5mC]*dT*dA*dA*dG*dG*dG*dT*dA*dT*d[5mC]*eT*eT*eG*eG*e[5mC]) [compound 412245]” is 75%; for “412246 (antisense eA*eG*eA*eT*e[5mC]*dA*dT*d[5mC]*dT*dT*dA*dT*dG*dG*dG*eT*eT*eA*eT*eT) [compound 412246]” it is 68%.
With “412247 (antisense eT*eA*eG*e[5mC]*e[5mC]*dG*dG*d[5mC]*dA*d[5mC]*dA*dG*dA*dT*d[5mC]*eA*eT*e[5mC]*eT*eT) [compound 412247]”, the “% inhibition” value came out at 75%.
Regarding “412248 (antisense e[5mC]*e[5mC]*eA*eG*eA*dT*dG*d[5mC]*d[5mC]*dA*dG*dA*d[5mC]*d[5mC]*dT*e[5mC]*eA*eT*eT*eG) [compound 412248]”, the “% inhibition” value is on record as 53%.
“412249 (antisense e[5mC]*eA*eT*eT*e[5mC]*dA*d[5mC]*dA*d[5mC]*dT*dG*d[5mC]*dT*dT*dG*eA*eG*eT*eT*eT) [compound 412249]”: the “% inhibition” value is given as 55%.
With “412250 (antisense eT*eG*eG*e[5mC]*eA*d[5mC]*dA*dG*dT*dG*dA*dA*d[5mC]*dT*d[5mC]*eA*eA*e[5mC]*eA*e[5mC]) [compound 412250]” the figure was 63%; with “412251 (antisense e[5mC]*eT*eA*eG*e[5mC]*dA*dT*dT*dT*dT*d[5mC]*dT*dT*dA*d[5mC]*eA*eA*eA*e[5mC]*eA) [compound 412251]”, 58%; with “412252 (antisense eT*eT*eA*eT*eG*dG*dT*dA*dA*dT*dT*d[5mC]*dT*dT*dG*eG*eA*e[5mC]*eT*e[5mC]) [compound 412252]”, 39%.
The figure for “412253 (antisense eA*eA*eA*eT*eA*dT*dT*dG*d[5mC]*d[5mC]*dT*dT*dA*dT*dG*eG*eT*eA*eA*eT) [compound 412253]” is 20%; for “412254 (antisense eT*eA*eT*e[5mC]*eT*dG*d[5mC]*d[5mC]*dT*dA*dT*dA*dT*dA*dG*eT*eA*eA*eT*e[5mC]) [compound 412254]” it is 16%.
The figure for “412255 (antisense eG*e[5mC]*e[5mC]*eA*e[5mC]*dT*dA*d[5mC]*dT*dT*dG*dG*dT*dT*dA*eT*eT*eT*eT*e[5mC]) [compound 412255]” is 38%.
On to “412256 (antisense eA*eA*e[5mC]*eA*eA*dA*dT*d[5mC]*dT*dA*dT*dT*dT*dA*dT*eG*eG*eT*eG*eG) [compound 412256]”, for which the “% inhibition” value stood at 39%.
The figure for “412257 (antisense e[5mC]*eT*eG*e[5mC]*eA*dA*dA*dA*dT*dG*dG*dT*dG*dA*dA*eG*eA*e[5mC]*eT*eG) [compound 412257]” is 57%; for “412258 (antisense eG*eT*eG*eT*eA*dG*dA*dT*dT*d[5mC]*d[5mC]*dT*dG*d[5mC]*dA*eA*eA*eA*eT*eG) [compound 412258]” it is 44%; for “412259 (antisense eT*eT*eT*eT*e[5mC]*dA*dG*dG*dA*dA*dA*dG*dT*dG*dT*eA*eT*e[5mC]*eT*eT) [compound 412259]” it is 37%.
On to “412260 (antisense e[5mC]*eA*e[5mC]*eA*eA*dA*dT*d[5mC]*dA*dT*dT*dT*dT*dT*d[5mC]*eA*eG*eG*eA*eA) [compound 412260]”, for which the “% inhibition” value stood at 27%.
As to “412261 (antisense eT*e[5mC]*e[5mC]*e[5mC]*eA*dA*dG*dA*dT*dA*dT*dT*dT*dT*dA*eA*eA*eT*eA*eA) [compound 412261]”, the “% inhibition” value came out at 3%.
The figure for “412262 (antisense eA*eA*eT*eG*eA*dG*dA*dT*dA*dA*dA*dT*dA*dT*dT*eT*eG*e[5mC]*eA*e[5mC]) [compound 412262]” is 34%; for “412263 (antisense eT*eG*eA*eA*eA*dG*d[5mC]*dT*dA*dT*dG*dT*dG*dG*dT*eG*eA*e[5mC]*eA*eA) [compound 412263]” it is 33%; for “412264 (antisense e[5mC]*eA*e[5mC]*eA*e[5mC]*dT*dT*dG*dA*dT*dG*dA*dA*dT*dT*eG*eT*eA*eT*eA) [compound 412264]” it is 27%.
For the substance “413460 (antisense eT*eA*e[5mC]*e[5mC]*eT*dT*dG*dA*dG*dA*dG*dA*dA*dT*dT*eG*e[5mC]*eT*eT*eG) [compound 413460]”, the “% inhibition” value worked out at 40%.
With “413461 (antisense eG*eT*e[5mC]*eA*eG*dA*dA*dA*dT*dA*dT*dA*d[5mC]*d[5mC]*dT*eT*eG*eA*eG*eA) [compound 413461]” the figure was 39%; with “413462 (antisense eA*eT*e[5mC]*eT*eT*dA*dG*dT*dA*dT*dG*dT*d[5mC]*dA*dG*eA*eA*eA*eT*eA) [compound 413462]”, 12%; with “413463 (antisense eG*eA*eG*eT*e[5mC]*dA*d[5mC]*dA*d[5mC]*dA*dT*dT*d[5mC]*dA*d[5mC]*e[5mC]*eA*eG*eA*eA) [compound 413463]”, 74%.
Turning to “413464 (antisense eG*eT*eG*eA*eG*d[5mC]*dA*dT*dT*dG*d[5mC]*dT*dT*dG*dA*eA*eA*eG*eA*eA) [compound 413464]”, the “% inhibition” value was found to be 42%.
With “413465 (antisense e[5mC]*eT*eT*eA*eT*dT*dT*dG*dG*dT*dG*dT*dG*dA*dG*e[5mC]*eA*eT*eT*eG) [compound 413465]” the figure was 80%; with “413466 (antisense eA*e[5mC]*eA*eT*eA*dA*dA*dT*dG*dT*d[5mC]*dT*dT*dT*dG*eT*eT*eG*e[5mC]*eA) [compound 413466]”, 79%.
The figure for “413470 (antisense eG*eT*eT*eA*eT*dA*dG*dT*dT*dT*dA*dT*dG*d[5mC]*d[5mC]*e[5mC]*eT*eT*e[5mC]*eA) [compound 413470]” is 72%; for “413471 (antisense eT*e[5mC]*eA*eG*eT*dA*dG*dA*d[5mC]*dA*dA*dA*dT*dG*dT*eT*eA*e[5mC]*eG*eA) [compound 413471]” it is 67%.
The figure for “413472 (antisense eT*eG*eG*eG*eT*dG*dT*dG*d[5mC]*dT*dT*d[5mC]*dA*dG*dT*eA*eG*eA*e[5mC]*eA) [compound 413472]” is 99%; for “413473 (antisense eA*eG*e[5mC]*e[5mC]*eA*dG*dA*dT*dT*dA*dG*dA*dA*dA*dG*eT*eG*e[5mC]*eA*e[5mC]) [compound 413473]” it is 80%; for “413475 (antisense eG*e[5mC]*e[5mC]*eA*eT*dT*d[5mC]*d[5mC]*dT*dG*dG*dG*dA*dA*dA*eA*eG*eA*eA*eG) [compound 413475]” it is 80%.
Consider “413477 (antisense eA*e[5mC]*eT*eG*eA*dA*dA*d[5mC]*d[5mC]*dA*dG*dA*dA*dA*dG*eA*eG*e[5mC]*eT*eT) [compound 413477]”, for which the “% inhibition” value is 54%.
The figure for “413478 (antisense eA*eG*eA*eA*eT*dG*dG*d[5mC]*dA*dG*dA*dA*d[5mC]*dA*d[5mC]*eT*eG*eG*eG*eA) [compound 413478]” is 53%; for “413479 (antisense eT*eG*eT*e[5mC]*eA*dT*dG*dG*dT*dA*dA*dA*dA*dT*dG*eA*eA*eG*eA*eA) [compound 413479]” it is 40%; for “413480 (antisense eA*eA*eG*eA*eA*dA*dT*d[5mC]*dA*dG*dT*dG*dT*d[5mC]*dA*eT*eG*eG*eT*eA) [compound 413480]” it is 71%.
With “413483 (antisense eA*eA*e[5mC]*eT*eG*dG*d[5mC]*dA*dG*d[5mC]*dG*dG*dA*d[5mC]*dG*eG*e[5mC]*eA*eT*eT) [compound 413483]” the figure was 78%; with “413484 (antisense e[5mC]*e[5mC]*eT*eT*eA*dA*dT*dG*dT*dG*dT*dA*dT*d[5mC]*d[5mC]*eA*eG*eA*eG*eA) [compound 413484]”, 74%.
With “413485 (antisense eT*eG*eG*eT*eG*dG*dT*dA*d[5mC]*dA*d[5mC]*dT*d[5mC]*dA*dT*eT*eA*eT*e[5mC]*e[5mC]) [compound 413485]” the figure was 68%; with “413486 (antisense eG*eG*e[5mC]*eT*eT*dG*dA*dT*dT*dT*dT*dG*dG*dT*dG*eG*eT*eA*e[5mC]*eA) [compound 413486]”, 83%; with “413487 (antisense eA*eA*e[5mC]*eG*eA*dT*d[5mC]*d[5mC]*dT*dG*dG*dG*d[5mC]*dT*dT*eG*eA*eT*eT*eT) [compound 413487]”, 57%.
Turning to “413488 (antisense eA*e[5mC]*eA*eG*eG*dT*dG*dT*d[5mC]*dT*d[5mC]*dT*dG*dA*dG*eT*eG*eG*eG*eT) [compound 413488]”, the “% inhibition” value is recorded as 49%.
With “413489 (antisense e[5mC]*eA*e[5mC]*eT*eG*dG*dT*dT*dT*d[5mC]*d[5mC]*dA*dA*dT*dG*eA*eT*eG*eG*eA) [compound 413489]” the figure was 68%.
